The values that follow come from patent US20170147742A1 (priority 2014, published 2017).

One assay relates to wild-type E. coli Top10. Nature of the assay: Growth rate of wild-type E. coli Top10 with transcription and translation inhibitors (microplate OD600). Format: cell-based, Escherichia coli. The method, then: Seed cultures were grown in LB medium supplemented with 30 μg/ml kanamycin from freshly transformed plates and after 10 to 12 h of overnight growth, pre-cultures were inoculated in fresh LB medium at a dilution of 100× for 2 to 3 h exponential growth (OD600=0.7−1). For characterization of the promoters in the vector pBbE8K, cell cultures were grown in 5 mL of pre-warmed LB medium at 37° C. in 50 mL test tubes, shaken at 225 rpm. The culture tubes were kept in ice for about 5 min to stop further growth and were pelleted by centrifugation for 2 min at 3300 g in 4° C., washed and diluted to OD600=0.1 by resuspension in pre-warmed supplemented minimal media with different glucose concentrations ranging from 20 mM to 0.1 mM. Cultures were then […] into transparent, flat-bottom 96-well plate in triplicate aliquots of […]. The plate was incubated in 37° C. with shaking for 8 min and growth rates were monitored by measuring absorbance at 600 nm and fluorescence were monitored by measuring RFP at excitation 535 nm and emission 600 nm using Synergy HT microplate reader (Biotek) over time. Time series OD600 and RFP data were collected for every 10 min for a total run time of 6 h.
[…] The cells were subjected to a microplate assay to measure their OD600 for 6 h. Three biological replicates were used for all of the experiments conducted.
For each promoter, the three OD600 and RFP data were averaged and background absorbance (wells containing only media) and fluorescence (Top10—E8K)) were subtracted from the raw measurements to obtain OD600 and RFP time series. Measurements were obtained in mid-exponential growth and growth rates were calculated as a time derivative of the OD curves, μ=d ln(OD)/dt. The activity of the promoters (RFP synthesis rate per cell) were calculated by, d(RFP)/dt/OD600. Relative promoter units of every promoter studied were calculated by, […]

Another assay addresses E. coli RNA polymerase (Escherichia coli, UniProt P0A8V2). Particulars: used in simulations, reference (44); read-out: inhibitory potency KI; cited from earlier work.
In assay [1] the test system is E. coli containing the lasQS device. In words: Growth rate of E. coli containing the lasQS inducible device exposed to AHL (microplate OD600). Particulars: glucose 20 mM. In kind it is cell-based, Escherichia coli. The method, then:
For characterizations of inducible system (lasQS device) in the vector pBbE8K, cells were first grown to stationary phase overnight in LB medium before being diluted 100× into fresh LB medium. The diluted cells were grown to exponential phase (OD600=1), washed and resuspended in supplemented minimal media with varying glucose concentration (20-0.1 mM) as mentioned earlier. Before being subjected to the microplate fluorescence assay, N-(3-Oxododecanoyl)-L-homoserine lactone (3-Oxo-C12-HSL, Sigma-Aldrich) was added to the pre-culture (Top10—pTetR-LasR-pLuxR-RFP) at varying molar concentrations of 10^−7-10^−9 M. The cell cultures were measured for their OD600 and RFP fluorescence for 6 h.
For each promoter, the three OD600 and RFP data were averaged and background absorbance (wells containing only media) and fluorescence (Top10—E8K)) were subtracted from the raw measurements to obtain OD600 and RFP time series. Measurements were obtained in mid-exponential growth and growth rates were calculated as a time derivative of the OD curves, μ=d ln(OD)/dt. The activity of the promoters (RFP synthesis rate per cell) were calculated by, d(RFP)/dt/OD600. Relative promoter units of every promoter studied were calculated by,
The lasQS device used in this study comprised three key components (FIG. 5(A)): the AHL synthetase LasI, the transcription factor LasR, and the lasI promoter. LasI produces the signaling molecule 3-O—C12-HSL (or AHL), and the LasR-AHL complex activates the lasI promoter. First, to examine the characteristics of the lasQS device, we constitutively expressed LasR using a sigma-70 promoter J23105, derived from the BioBrick parts registry (www.partsregistry.org/Part:pSB1K3). The activity of the device was indicated by red fluorescence protein (RFP), which was placed under the control of the lasI promoter. E. coli containing the lasQS device was exogenously exposed to AHL concentrations ranging from 10^−9 M to 10^−7 M and varying glucose concentrations.

E. coli RNA polymerase, sequence (P0A8V2 whole entry): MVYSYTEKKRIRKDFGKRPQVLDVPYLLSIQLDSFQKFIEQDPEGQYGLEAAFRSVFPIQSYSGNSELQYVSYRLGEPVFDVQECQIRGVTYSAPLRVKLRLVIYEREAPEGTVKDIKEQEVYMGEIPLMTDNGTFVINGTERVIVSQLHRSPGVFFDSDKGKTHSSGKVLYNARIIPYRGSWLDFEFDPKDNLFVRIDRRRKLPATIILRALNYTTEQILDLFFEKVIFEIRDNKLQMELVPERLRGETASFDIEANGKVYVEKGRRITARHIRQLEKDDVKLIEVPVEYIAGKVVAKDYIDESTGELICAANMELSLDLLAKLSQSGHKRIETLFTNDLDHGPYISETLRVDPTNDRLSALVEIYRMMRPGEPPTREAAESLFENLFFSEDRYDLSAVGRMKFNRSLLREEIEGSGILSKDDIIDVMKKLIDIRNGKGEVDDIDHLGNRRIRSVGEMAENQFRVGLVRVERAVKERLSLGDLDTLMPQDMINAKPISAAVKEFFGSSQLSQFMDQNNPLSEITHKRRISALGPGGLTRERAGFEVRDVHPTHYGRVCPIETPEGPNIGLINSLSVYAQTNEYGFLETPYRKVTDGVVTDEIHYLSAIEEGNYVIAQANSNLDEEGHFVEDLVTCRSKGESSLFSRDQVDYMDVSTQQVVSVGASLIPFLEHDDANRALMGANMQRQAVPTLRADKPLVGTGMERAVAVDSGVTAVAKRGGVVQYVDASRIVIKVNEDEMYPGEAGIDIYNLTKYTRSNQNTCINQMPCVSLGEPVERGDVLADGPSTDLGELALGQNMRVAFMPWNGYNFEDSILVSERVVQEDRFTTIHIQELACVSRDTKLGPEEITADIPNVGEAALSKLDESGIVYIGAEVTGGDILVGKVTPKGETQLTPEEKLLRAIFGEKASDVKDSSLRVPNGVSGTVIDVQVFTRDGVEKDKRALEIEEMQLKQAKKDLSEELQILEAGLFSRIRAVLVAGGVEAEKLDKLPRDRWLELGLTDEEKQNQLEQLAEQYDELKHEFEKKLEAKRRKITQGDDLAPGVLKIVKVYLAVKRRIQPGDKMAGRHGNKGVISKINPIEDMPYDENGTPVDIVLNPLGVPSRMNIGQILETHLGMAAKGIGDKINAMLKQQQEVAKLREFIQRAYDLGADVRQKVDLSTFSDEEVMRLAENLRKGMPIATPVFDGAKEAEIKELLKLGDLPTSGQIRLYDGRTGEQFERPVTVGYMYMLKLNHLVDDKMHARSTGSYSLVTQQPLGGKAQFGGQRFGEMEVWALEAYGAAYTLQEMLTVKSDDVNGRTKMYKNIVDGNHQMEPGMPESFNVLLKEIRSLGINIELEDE
E. coli RNA polymerase, sequence (P0A8T7 whole entry partner): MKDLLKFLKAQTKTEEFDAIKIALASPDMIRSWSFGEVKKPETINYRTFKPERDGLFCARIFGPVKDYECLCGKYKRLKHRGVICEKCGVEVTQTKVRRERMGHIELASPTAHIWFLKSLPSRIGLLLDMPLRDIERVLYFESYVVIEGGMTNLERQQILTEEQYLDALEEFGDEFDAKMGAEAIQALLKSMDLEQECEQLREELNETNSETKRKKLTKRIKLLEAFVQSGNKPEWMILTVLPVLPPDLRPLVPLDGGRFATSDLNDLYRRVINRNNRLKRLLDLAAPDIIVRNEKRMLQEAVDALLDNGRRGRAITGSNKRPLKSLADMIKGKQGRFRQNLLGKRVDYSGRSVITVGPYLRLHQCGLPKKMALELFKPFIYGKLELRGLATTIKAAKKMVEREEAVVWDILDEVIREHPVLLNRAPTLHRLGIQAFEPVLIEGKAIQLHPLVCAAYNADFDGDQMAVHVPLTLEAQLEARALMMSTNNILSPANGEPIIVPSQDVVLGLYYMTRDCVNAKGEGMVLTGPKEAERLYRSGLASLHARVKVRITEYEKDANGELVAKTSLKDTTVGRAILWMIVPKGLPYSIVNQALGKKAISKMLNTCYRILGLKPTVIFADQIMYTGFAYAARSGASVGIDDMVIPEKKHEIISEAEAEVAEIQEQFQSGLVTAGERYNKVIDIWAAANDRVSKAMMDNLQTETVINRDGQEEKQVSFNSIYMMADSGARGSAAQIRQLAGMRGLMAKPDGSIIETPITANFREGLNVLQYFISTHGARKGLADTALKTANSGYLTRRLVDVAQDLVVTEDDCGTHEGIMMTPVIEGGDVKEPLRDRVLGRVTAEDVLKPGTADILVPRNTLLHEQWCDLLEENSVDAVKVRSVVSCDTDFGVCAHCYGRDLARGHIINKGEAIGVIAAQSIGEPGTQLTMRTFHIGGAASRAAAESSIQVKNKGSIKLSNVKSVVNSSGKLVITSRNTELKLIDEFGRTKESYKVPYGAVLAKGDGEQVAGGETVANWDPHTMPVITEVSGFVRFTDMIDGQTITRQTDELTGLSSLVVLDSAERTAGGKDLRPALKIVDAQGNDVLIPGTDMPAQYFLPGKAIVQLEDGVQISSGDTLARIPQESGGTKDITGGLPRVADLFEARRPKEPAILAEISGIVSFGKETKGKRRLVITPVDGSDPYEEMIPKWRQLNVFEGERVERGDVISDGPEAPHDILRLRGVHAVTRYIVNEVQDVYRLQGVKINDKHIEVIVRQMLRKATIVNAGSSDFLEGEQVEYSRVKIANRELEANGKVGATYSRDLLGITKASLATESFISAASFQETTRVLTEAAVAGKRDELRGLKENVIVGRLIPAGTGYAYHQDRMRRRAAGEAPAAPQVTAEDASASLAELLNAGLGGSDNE
E. coli RNA polymerase, sequence (P0A7Z4 whole entry partner): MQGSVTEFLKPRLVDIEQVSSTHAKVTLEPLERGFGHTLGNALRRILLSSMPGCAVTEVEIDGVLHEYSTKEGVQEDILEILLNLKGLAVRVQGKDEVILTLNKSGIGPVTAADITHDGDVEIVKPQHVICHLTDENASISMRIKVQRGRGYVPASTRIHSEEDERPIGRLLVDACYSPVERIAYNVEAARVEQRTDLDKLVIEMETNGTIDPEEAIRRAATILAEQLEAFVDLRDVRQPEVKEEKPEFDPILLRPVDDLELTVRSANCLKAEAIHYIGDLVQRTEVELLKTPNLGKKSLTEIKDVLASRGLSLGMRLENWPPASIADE
E. coli RNA polymerase, sequence (P0A800 whole entry partner): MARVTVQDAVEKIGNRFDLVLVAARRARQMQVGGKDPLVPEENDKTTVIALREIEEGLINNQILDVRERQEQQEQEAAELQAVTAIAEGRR

On to `CO[C@H]1/C=C/O[C@@]2(C)Oc3c(C)c(O)c4c(O)c(c(/C=N/N5CCN(C)CC5)c(O)c4c3C2=O)NC(=O)/C(C)=C\C=C\[C@H](C)[C@H](O)[C@@H](C)[C@@H](O)[C@@H](C)[C@H](OC(C)=O)[C@@H]1C` [rifampicin], for which the growth rate in the assay with wild-type E. coli Top10 (rifampicin 6 μM, maximum glucose concentration) was found to be 0.79 doublings per hour; with wild-type E. coli Top10 (rifampicin 8 μM, maximum glucose concentration) it was 0.68 doublings per hour; in the assay with wild-type E. coli Top10 (rifampicin 10 μM, maximum glucose concentration, M9 supplemented media), 0.55 doubling per hour. On E. coli RNA polymerase, the Ki is 1 nM.

On to `CN(C)[C@@H]1C(O)=C(C(N)=O)C(=O)[C@@]2(O)C(O)=C3C(=O)c4c(O)cccc4[C@@](C)(O)[C@H]3C[C@@H]12` [tetracycline], for which the growth rate in the assay on wild-type E. coli Top10 (tetracycline 4 μM) amounted to 0.19 doublings per hour; in the assay on wild-type E. coli Top10 (tetracycline concentration of 1) it was 0.66 doublings per hour; with wild-type E. coli Top10 (tetracycline concentration of 2), 0.38 doublings per hour.

For the molecule `CCCCCCCCCC(=O)CC(=O)N[C@H]1CCOC1=O` [AHL, N-(3-Oxododecanoyl)-L-homoserine lactone], the “reduction in growth rate” value was 23% in assay [1] (AHL 10^−7 M), 13% in assay [1] (AHL 10^−8 M) and 7% in assay [1] (AHL 10^−9M).
